Common to all, as to assay type: cell-based, human
For one assay, the system named is MB231 cells. The assay can be described thus: Cell death by propidium iodide staining and FACS cell cycle analysis. Particulars: MB231, α-MT 2.5 mM and 3-MA 10 mM, either alone or together, 48 h. Here is the method:
FIGS. 9A to 9D. Influence of α-MT on mTOR activity In FIG. 9A, MCF7 and MB231 cells were treated without or with α-MT (2.5 mM) for 24 h, 48 h, or 72 h, and then the cell lysates were used for western blot. Influence of α-MT with or without 3-MA on cell death. In FIG. 9B, MCF7, MB231, and MCF10A cells were treated for 48 h without or with α-MT (2.5 mM), 3-MA (10 mM), or α-MT (2.5 mM) plus 3-MA (10 mM), and then analyzed for cell death by propidium iodide (PI) staining and FACS-based cell cycle analysis. In FIG. 9C, MCF7 cells were treated for 48 h without or with α-MT (2.5 mM), 3-MA (10 mM), or α-MT (2.5 mM) plus 3-MA (10 mM), and then analyzed for apoptotic cell death by annexin V labeling. In FIG. 9D, MCF7 and MB231 cells were treated without or with 2.5 mM α-MT for 24 h, 48 h, or 72 h. Cell lysates were then used for western blot analysis of lamin A degradation product using an antibody that recognizes specifically the proteolytic cleavage product. β-Actin was used as an internal control.
Apoptosis assay. Fluorescence-activated cell sorting (FACS) was used to monitor cell death. MCF7 cells were treated with or without α-MT, 3-MA, or α-MT plus 3-MA. Control and treated cells were then fixed in 50% ethanol, treated with 0.1% sodium citrate, 1 mg/ml RNase A, and 50 μg/ml propidium iodide, and then subjected to FACS analysis (FACS Caliber, Becton Dickinson). FITC-labeled annexin V was used to differentiate apoptotic cell death from necrotic cell death.

The subject of another assay is MCF7 cells. The assay can be described thus: Analysis of autophagy (LC3 localization, electron microscopy, autophagosomal proteolysis, GFP-LC3). Particulars: MCF7, α-MT 2.5 mM, 48 h. The procedure: FIGS. 6A to 6C. Effects of SLC6A14 blockade with α-MT in breast cancer cells. In FIG. 6A, MCF10A (a non-malignant mammary epithelial cell line), MCF7 (an ER-positive breast cancer cell line), and MB231 (an ER-negative breast cancer cell line) cells were treated with or without 2.5 mM α-MT for 24, 48, or 72 h and then used for analysis of asparagine synthetase (ASNS) and CHOP mRNA levels. In FIG. 6B, MCF7, MB231 and MCF10A cells were treated with or without 2.5 mM α-MT for 48 h and then used for immunocytochemical analysis of the constitutively expressed LC-3. In FIG. 6C, MCF7 cells were treated with (“b” and “c”) or without (“a”) α-MT (2.5 mM) for 48 h and then used for electron microscopy. Arrows indicate sequestration of cytoplasm and organelles in pre-autophagosomes and autophagosome, and the asterisk indicates condensed chromatin. N, nucleus.
FIGS. 7A and 7B. Induction of autophagy in MCF7 cells by α-MT. […] The concentrations of α-MT and 3-MA, when present, were 2.5 mM and 10 mM. The treatment time was 48 h. The extent of proteolysis was determined by the radioactivity present in the protein-free supernatant. […] In FIG. 7B, MCF7 cells were transfected with an GFP-LC3 expression plasmid, and 24 h later, the cells were treated with or without α-MT (2.5 mM) in the presence or absence of 3-MA (10 mM) for 48 h. At the end of the treatment, cells were fixed, and the percent of cells with punctate localization of the ectopically expressed GFP-LC3 was quantified. “a” represents compared to control; “b” represents compared to treatment with α-MT alone; and “c” represents compared to treatment with […]; *, p<0.001.
Analysis of autophagy. Autophagy was analyzed as described previously (Periyasamy-Thandavan et al., 2010, Autophagy; 6:19-35; and Samaddar et al., 2008, Mol Cancer Ther; 7:2977-2987) by monitoring the localization pattern of constitutively expressed LC3 as well as that of ectopically expressed GFP-LC3. In the case of the constitutively expressed LC3, cells were treated without or with α-MT, and then used for immunocytochemical analysis of LC3 localization pattern. For ectopically expressed LC3, cells were transfected with a GFP-LC3 expression plasmid. Briefly, cells were plated on a coverslip to reach ˜50% confluence and transfection of these cells was done with 1 μg of the plasmid using FuGENE transfection reagent (Roche, Nutley, N.J.). […] At the end of the treatment, cells were fixed with 4% paraformaldehyde and examined by fluorescence microscopy to count the number of cells with punctate GFP-LC3. Autophagosomal proteolysis was quantified as described previously (Periyasamy-Thandavan et al., 2010, Autophagy; 6:19-35). […]

A further assay concerns ZR75.1 cells. The assay is described as follows: QCM cell invasion assay. Particulars: ZR75.1, α-MT 2.5 mM, p>0.05. The procedure:
Migration and invasion assays. The influence of α-MT on cell migration and invasion was determined with ZR75.1 cells. The migration of these cells toward fetal bovine serum was measured using the QCM™ cell migration assay kit (Millipore) according to manufacturer's instructions. Serum-starved ZR75.1 cells were allowed to migrate for 48 h in the presence/absence of α-MT (2.5 mM). After removing the cells on the top of the membrane filter, the inserts were stained with 0.1% crystal violet, washed and dried. The crystal violet dye retained on the filters, representing the cells that migrated to the underside of the membrane filter, was extracted with acetic acid. The absorbance of the extract was measured at 570 nm. Cell invasion assay was performed similarly using the QCM™ cell invasion assay kit (Millipore). The inserts used in this assay were coated with ECMATRIX™, representing extracellular matrix.

Structures are written as SMILES.

The values below come from US20140024663A1, “ATB(0,+) AMINO ACID TRANSPORTER AS A DRUG TARGET FOR TREATMENT OF ESTROGEN RECEPTOR-POSITIVE BREAST CANCER” (GEORGIA HEALTH SCIENCES UNIVERSITY RESEARCH INSTITUTE, INC., priority 2012, published 2014).

For `CC(N)(Cc1c[nH]c2ccccc12)C(=O)O` (racemic) [α-MT, α-methyl-DL-tryptophan], the “effect on cell death” value with MB231 cells was “very little, if any, effect”. Also, in the assay with MCF7 cells, the “autophagosomal proteolysis of 14C-labeled proteins” value is given as “increased proteolysis” and the “autophagy (punctate localization of constitutively expressed LC3, autophagosomes in electron microscopy)” value is recorded as “induced autophagy”. Besides, the “invasion in α-MT-treated cells” value in the assay on ZR75.1 cells is recorded as 95±14 % of control.
